Here are results for eleven compounds from paper PMC10709440, “High-throughput ligand profile characterization in novel cell lines expressing seven heterologous insect olfactory receptors for the detection of volatile plant biomarkers” (Scientific Reports, 2023).

What all share (assay): cell-based
Design in all cases: GCaMP6 calcium fluorescence in stable HEK293 OR+ORCO lines; peak dF normalised to 50 uM VUAA1 (=1)

One assay concerns the target T1, Drosophila OR71a (Drosophila melanogaster, UniProt Q9VUK5).
T1 construct: expressed in transfected cells
T1 sequence (Q9VUK5 1-378): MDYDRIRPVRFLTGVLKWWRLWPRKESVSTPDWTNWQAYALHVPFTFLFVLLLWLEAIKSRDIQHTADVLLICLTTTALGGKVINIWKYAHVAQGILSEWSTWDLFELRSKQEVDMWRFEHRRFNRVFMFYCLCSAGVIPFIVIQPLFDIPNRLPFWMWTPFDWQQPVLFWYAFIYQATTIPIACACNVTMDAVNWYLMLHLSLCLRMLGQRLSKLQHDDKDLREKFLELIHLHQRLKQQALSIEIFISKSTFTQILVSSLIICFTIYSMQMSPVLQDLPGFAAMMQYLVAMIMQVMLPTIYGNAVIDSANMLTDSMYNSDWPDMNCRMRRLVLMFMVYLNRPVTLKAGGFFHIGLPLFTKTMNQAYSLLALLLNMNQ
T1 sequence (Q9VNB5 1-486 partner): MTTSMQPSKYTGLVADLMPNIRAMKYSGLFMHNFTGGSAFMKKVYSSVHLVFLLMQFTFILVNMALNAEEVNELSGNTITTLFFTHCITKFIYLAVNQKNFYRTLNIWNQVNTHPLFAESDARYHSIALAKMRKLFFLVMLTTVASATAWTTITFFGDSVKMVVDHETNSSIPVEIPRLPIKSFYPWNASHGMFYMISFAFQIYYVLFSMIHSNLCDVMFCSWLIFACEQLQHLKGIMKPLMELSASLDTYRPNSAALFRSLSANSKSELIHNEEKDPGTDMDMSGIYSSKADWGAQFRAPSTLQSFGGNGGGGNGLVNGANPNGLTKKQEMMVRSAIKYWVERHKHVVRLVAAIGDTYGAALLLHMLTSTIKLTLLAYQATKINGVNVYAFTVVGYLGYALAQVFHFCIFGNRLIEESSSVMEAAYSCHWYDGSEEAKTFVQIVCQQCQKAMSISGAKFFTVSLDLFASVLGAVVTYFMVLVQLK
The settings on record: HEK293; relative to 50 uM VUAA1 response; below 0.05 set to 0; read-out: % activation. The protocol:
(§1) Twelve thousand to 18,000 cells were plated into each well of a black wall, transparent bottom 384-well microplate (Greiner) 48 h or 72 h before the measurements and were simultaneously treated with 1 μg/mL doxycycline. […] The plate has 24 columns, thus we could record responses in up to eight different cell lines in each plate. On the day of the experiment, the growth medium was replaced with 20 µL assay buffer/well (140 mM NaCl, 5 mM KCl, 2 mM CaCl2, 1 mM MgCl2, 5 mM HEPES-Na, 20 mM glucose, pH 7.3, 340 mOsm). […] Baseline fluorescence (F0) was recorded for 5 s, after which 7 µL VOC buffer (140 mM NaCl, 5 mM KCl, 2 mM CaCl2, 1 mM MgCl2, 5 mM HEPES-Na, 31 mM glucose, 0.1% DMSO, pH 7.3, 340 mOsm) was injected into each well in one row and the fluorescence response was recorded for an additional 30 s, at a rate of one read/sec. VOC solutions (VOC buffer with 4× concentration of the final measured VOC concentration, 9 µL/well was injected) were measured on the same wells in a second round with the same protocol. Each individual concentration of a specific VOC sample was recorded in three wells for the same cell line on the same microplate. The raw data were exported in xls file format, F0 and FMAX values, and the fluorescence intensity changes (∆F) were calculated in Excel (Microsoft) (Supplementary file Data summary.xlsx) using the following equation: ΔF=FMAX-F0/F0 (see also Fig. 1C). On each plate, we recorded the response of each cell line to 50 µM VUAA1. The average of these ∆F values of each cell line were used to calculate the VUAA1-normalized values for the rest of the plate, by dividing VOC response ∆F values by the average VUAA1 response ∆F value of the corresponding OR cell line. Each VOC-OR combination was measured three times as tec The recorded FMAX, F0, ∆F, VUAA1-normalized ∆F values, as well as the OR name, the name of the tested sample, and the final concentration for each well were copied into supplementary file Data summary.xlsx, that was used to summarize all the plates recorded. Here, the averages of the measurements were calculated for each receptor-VOC-concentration combination. […] Each VOC was measured at 1, 10, and 100 µM final concentration on each receptor. VUAA1-normalized response was calculated as described in methods.

Another assay addresses T2, Drosophila OR47a (Drosophila melanogaster, UniProt P81921).
T2 construct: expressed in transfected cells
T2 sequence (P81921 1-385): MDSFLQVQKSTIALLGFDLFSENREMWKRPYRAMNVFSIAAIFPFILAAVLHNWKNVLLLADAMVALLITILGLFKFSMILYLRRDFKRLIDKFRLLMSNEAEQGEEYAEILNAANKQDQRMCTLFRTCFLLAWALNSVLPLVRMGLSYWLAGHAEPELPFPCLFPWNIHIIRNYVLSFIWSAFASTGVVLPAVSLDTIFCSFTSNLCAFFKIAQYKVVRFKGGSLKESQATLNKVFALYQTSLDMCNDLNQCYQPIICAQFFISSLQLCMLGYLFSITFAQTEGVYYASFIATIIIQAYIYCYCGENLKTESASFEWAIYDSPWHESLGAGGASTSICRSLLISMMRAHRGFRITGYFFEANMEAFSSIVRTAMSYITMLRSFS
T2 sequence (Q9VNB5 1-486 partner): T1 sequence (Q9VNB5 1-486 partner)
The settings on record: relative to 50 uM VUAA1 response, below 0.05 set to 0; for activity at 1 µM / activity at 10 µM / activity at 100 µM: HEK293, read-out: % activation; for % activation: 10 µM, agonist, 10 / OR47a. The protocol:
as §1

The target of the next assay is T3, Drosophila OR98a (Drosophila melanogaster, UniProt Q9VAZ3).
T3 construct: expressed in transfected cells
T3 sequence (Q9VAZ3 1-397): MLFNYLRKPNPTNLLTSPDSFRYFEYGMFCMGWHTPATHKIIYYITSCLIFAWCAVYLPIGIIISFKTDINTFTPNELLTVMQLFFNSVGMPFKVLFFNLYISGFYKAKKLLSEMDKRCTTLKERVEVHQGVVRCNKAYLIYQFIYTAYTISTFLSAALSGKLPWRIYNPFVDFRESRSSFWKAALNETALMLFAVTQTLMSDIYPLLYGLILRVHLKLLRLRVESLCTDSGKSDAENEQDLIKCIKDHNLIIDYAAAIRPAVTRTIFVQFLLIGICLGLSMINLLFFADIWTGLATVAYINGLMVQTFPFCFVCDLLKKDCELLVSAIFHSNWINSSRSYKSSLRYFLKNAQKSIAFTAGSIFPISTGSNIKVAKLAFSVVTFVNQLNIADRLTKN
T3 sequence (Q9VNB5 1-486 partner): T1 sequence (Q9VNB5 1-486 partner)
The settings on record: HEK293; relative to 50 uM VUAA1 response; below 0.05 set to 0; read-out: % activation. The protocol:
as §1

As for `Cc1ccc(C)cc1` [p-xylene], the activity at 10 µM on Drosophila OR71a came out at 6.15%.

Take `C=C1[C@H]2CC[C@@H]3[C@H]2C(C)(C)CCC[C@]13C` [(+)-longifolene]: the activity at 1 µM at Drosophila OR47a, at Drosophila OR71a and at Drosophila OR98a was 0% each time. For the same compound, the activity at 10 µM turned out to be 0% at Drosophila OR47a, 0% on Drosophila OR71a and 12.6% at Drosophila OR98a. Besides, the activity at 100 µM at Drosophila OR47a, on Drosophila OR71a and at Drosophila OR98a was 0% each time.

Take `C=C(C)[C@H]1CC=C(C)CC1` [limonene]: the “% activation” value on Drosophila OR47a is 0%.

On to `COC(=O)c1ccccc1O` [methyl salicylate], for which, on Drosophila OR71a, the activity at 100 µM stood at 11.5%.

With `CC1=CCC[C@@]2(C)[C@@H]3CC[C@]12CC3(C)C` [(−)-α-neoclovene], the activity at 1 µM on Drosophila OR98a is 14.8%.

Regarding `CCCCCOC(C)=O` [pentyl acetate], the activity at 100 µM at Drosophila OR71a amounted to 8.7%.

As to `C=C(C)C1CCC2(C)OC2C1` (single isomer, unassigned; (+)) [(+)-limonene oxide], at Drosophila OR47a, the activity at 1 µM came to 0%, the activity at 10 µM worked out at 0% and the activity at 100 µM was found to be 0%. Besides, at Drosophila OR71a, the activity at 1 µM was determined as 0%, the activity at 10 µM was determined as 0% and the activity at 100 µM was 0%. Further, on Drosophila OR98a, the activity at 1 µM worked out at 0%, the activity at 10 µM was found to be 0% and the activity at 100 µM is 0%.

With `COC(=O)c1ccccc1` [methyl benzoate], on Drosophila OR47a, the activity at 100 µM was determined as 5.95%.

For the compound `OCCc1ccccc1` [phenethyl alcohol], on Drosophila OR47a, the activity at 1 µM is 5.64%, the activity at 10 µM amounted to 6.44% and the activity at 100 µM came to 5.7%. Besides, the activity at 1 µM on Drosophila OR71a was determined as 8.62%.

With `C=C1CC[C@@]23C[C@@H]1C(C)(C)[C@@H]2CC[C@H]3C` [(+)-beta-cedrene], at Drosophila OR47a, the activity at 1 µM worked out at 0%, the activity at 10 µM stood at 0% and the activity at 100 µM was 0%. On Drosophila OR71a, the activity at 1 µM was 0%, the activity at 10 µM was found to be 0% and the activity at 100 µM is 0%. At Drosophila OR98a, the activity at 1 µM was found to be 8.55%, the activity at 10 µM is 5.99% and the activity at 100 µM is 6.08%.

For the compound `C=C(C)[C@H]1CC=C(C)CC1` [(R)-(+)-limonene], at Drosophila OR47a, the activity at 1 µM was determined as 0%, the activity at 100 µM was 0% and the “% activation” value is 0.05286%. At Drosophila OR71a, the activity at 1 µM worked out at 0%, the activity at 10 µM stood at 0% and the activity at 100 µM was determined as 0%. On Drosophila OR98a, the activity at 1 µM was 0%, the activity at 10 µM amounted to 0% and the activity at 100 µM amounted to 0%.
